Results published in patent publication EP4745137A1 (Gluetacs Therapeutics (Shanghai) Co., Ltd., priority 2023, dated 2025).

What was measured:
Assay type in all cases: cell-based
Conditions in all cases: 24 hours of compound treatment
IKZF1 = molecular target: T1, IKZF1 (Homo sapiens, UniProt Q13422+Q96SW2); assay: Western-blot assay of substrate protein degradation in hPBMCs, IKZF1
T1 construct: endogenous in cells; host or cells: hPBMCs (Milecell Biotechnologies)
Protocol: (§1) After 24 hours of compounds treatment, cells were harvested and lysed in RIPA protein lysate containing protease inhibitors on ice for 30 min, followed by centrifugation. The supernatant was aspirated as the extracted total cell protein. The protein concentration of the supernatant was determined using the conventional BCA (Bicinchoninic Acid) assay. • (2) To the collected supernatant, 5X SDS sample loading buffer was added, followed by denaturation at 95°C for 5 minutes. The denatured samples were then separated by SDS-PAGE electrophoresis on a polyacrylamide gel, transferred onto a nitrocellulose membrane (0.45 µm NC membrane), blocked with blocking buffer at room temperature for 1 hour, and subjected to antibody incubation and development procedures according to the antibody manufacturer's instructions (Cell Signaling Technology Company). […]
(§2) Target protein remaining (%) refers to the percentage of target protein remaining in cells after treatment with protein degrader compounds.
(§3) Calculation method for target protein remaining (%): Use ImageJ software to measure grayscale values of Western blot bands from drug (protein degrader)-treated samples. The grayscale value of drug-treated bands is divided by that of internal control protein bands, and the resulting quotient is normalized to obtain the relative percentage of remaining target protein after protein degrader treatment. Target protein degradation rate(%) = 1−target protein remaining(%). [formula]

WEE1 = molecular target: T2, WEE1 (Homo sapiens, UniProt P30291+Q96SW2); assay: Western-blot assay of substrate protein degradation in hPBMCs, WEE1
T2 construct: endogenous in cells; host or cells: hPBMCs (Milecell Biotechnologies)
T2 sequence (P30291 whole entry): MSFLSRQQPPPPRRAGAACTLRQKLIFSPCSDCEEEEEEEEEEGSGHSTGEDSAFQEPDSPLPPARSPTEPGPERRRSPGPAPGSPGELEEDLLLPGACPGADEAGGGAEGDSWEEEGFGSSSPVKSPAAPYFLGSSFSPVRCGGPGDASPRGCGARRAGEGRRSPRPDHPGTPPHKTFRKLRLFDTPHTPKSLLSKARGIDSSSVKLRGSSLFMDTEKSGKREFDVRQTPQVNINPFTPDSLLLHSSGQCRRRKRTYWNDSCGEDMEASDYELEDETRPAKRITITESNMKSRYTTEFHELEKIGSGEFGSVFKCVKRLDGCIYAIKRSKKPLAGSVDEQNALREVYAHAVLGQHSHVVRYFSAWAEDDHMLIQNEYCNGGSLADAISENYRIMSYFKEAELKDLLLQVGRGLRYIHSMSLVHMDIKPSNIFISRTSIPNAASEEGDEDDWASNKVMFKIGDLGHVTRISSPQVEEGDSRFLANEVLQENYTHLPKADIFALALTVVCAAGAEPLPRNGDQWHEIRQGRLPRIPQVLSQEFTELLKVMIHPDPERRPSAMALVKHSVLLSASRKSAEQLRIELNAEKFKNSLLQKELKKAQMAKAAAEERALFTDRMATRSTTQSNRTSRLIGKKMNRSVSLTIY
T2 sequence (Q96SW2 whole entry): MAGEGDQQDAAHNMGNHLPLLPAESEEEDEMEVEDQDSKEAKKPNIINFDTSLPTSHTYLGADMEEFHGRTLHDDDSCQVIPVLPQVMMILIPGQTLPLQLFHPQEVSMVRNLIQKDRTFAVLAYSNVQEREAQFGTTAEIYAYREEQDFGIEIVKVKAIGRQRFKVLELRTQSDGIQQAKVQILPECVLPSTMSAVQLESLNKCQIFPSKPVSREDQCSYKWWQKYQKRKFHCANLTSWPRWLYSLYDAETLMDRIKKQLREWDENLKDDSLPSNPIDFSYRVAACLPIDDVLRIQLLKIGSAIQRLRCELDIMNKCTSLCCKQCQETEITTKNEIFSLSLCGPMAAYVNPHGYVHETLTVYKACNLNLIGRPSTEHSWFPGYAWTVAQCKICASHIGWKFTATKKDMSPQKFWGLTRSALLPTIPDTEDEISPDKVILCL
T2 sequence (Q16531 whole entry partner): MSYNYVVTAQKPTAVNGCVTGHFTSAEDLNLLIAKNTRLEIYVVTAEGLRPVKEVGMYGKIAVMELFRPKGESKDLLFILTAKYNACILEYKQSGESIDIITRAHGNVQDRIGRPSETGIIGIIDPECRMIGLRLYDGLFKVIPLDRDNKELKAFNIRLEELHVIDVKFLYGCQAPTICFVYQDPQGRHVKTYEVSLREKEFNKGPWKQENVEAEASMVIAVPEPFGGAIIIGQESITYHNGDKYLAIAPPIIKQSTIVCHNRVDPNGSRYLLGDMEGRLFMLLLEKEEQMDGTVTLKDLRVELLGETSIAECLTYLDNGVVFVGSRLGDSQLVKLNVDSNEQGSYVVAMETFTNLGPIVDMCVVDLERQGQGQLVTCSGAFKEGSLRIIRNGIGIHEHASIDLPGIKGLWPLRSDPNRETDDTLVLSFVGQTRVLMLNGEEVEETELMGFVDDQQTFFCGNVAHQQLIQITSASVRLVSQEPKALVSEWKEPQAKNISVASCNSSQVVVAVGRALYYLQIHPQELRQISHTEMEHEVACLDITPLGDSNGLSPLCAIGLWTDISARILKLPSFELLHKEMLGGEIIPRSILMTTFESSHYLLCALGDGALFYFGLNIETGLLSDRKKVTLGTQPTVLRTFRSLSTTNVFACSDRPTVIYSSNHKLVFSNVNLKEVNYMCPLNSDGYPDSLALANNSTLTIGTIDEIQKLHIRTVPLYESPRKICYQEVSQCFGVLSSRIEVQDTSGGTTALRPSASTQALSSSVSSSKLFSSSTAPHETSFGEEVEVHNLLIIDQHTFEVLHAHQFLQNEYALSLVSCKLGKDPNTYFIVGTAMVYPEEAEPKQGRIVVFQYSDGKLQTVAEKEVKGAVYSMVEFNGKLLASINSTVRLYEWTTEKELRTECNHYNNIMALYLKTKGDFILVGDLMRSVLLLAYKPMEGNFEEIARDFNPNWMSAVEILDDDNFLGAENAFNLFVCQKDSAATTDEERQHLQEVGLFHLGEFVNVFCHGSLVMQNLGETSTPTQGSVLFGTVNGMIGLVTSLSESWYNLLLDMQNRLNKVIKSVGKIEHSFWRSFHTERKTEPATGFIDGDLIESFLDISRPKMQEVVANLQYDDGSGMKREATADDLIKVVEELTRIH
Protocol: as §1, §2, §3

IKZF2 = molecular target: T3, IKZF2 (Homo sapiens, UniProt Q96SW2+Q9UKS7); assay: Western-blot assay of substrate protein degradation in hPBMCs, IKZF2
T3 construct: endogenous in cells; host or cells: hPBMCs (Milecell Biotechnologies)
T3 sequence (Q9UKS7 whole entry): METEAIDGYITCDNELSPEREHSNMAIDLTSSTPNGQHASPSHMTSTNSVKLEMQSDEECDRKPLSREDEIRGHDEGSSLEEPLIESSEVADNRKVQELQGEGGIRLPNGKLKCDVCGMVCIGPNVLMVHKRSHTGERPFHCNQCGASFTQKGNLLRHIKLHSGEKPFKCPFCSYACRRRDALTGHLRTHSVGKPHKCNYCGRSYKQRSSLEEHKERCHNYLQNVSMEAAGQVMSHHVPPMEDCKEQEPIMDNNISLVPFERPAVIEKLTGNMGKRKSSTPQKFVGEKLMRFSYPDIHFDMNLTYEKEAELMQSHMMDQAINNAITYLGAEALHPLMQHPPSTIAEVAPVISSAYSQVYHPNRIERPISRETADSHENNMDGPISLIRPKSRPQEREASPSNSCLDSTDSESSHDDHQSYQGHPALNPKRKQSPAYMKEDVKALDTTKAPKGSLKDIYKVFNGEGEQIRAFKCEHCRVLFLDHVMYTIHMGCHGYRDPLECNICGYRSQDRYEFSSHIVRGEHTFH
T3 sequence (Q96SW2 whole entry): as the sequence (Q96SW2 whole entry) above
T3 sequence (Q16531 whole entry partner): as the sequence (Q16531 whole entry partner) above
Protocol: as §1, §2, §3

IKZF3 = molecular target: T4, IKZF3 (Homo sapiens, UniProt Q96SW2+Q9UKT9); assay: Western-blot assay of substrate protein degradation in hPBMCs, IKZF3
T4 construct: endogenous in cells; host or cells: hPBMCs (Milecell Biotechnologies)
T4 sequence (Q9UKT9 whole entry): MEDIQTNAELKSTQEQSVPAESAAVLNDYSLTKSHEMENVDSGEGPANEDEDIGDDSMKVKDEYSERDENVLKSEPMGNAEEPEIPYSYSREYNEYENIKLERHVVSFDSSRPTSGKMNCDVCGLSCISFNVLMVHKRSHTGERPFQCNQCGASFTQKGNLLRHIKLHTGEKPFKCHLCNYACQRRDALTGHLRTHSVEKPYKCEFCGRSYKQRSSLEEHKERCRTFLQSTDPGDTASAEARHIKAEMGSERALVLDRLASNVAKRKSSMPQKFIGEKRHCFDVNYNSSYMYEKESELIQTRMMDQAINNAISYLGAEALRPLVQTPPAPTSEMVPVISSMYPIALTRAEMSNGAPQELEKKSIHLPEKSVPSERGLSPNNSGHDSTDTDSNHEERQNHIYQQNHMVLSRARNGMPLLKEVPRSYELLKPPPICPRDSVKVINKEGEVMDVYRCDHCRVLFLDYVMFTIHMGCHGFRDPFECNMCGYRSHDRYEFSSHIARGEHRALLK
T4 sequence (Q96SW2 whole entry): as the sequence (Q96SW2 whole entry) above
T4 sequence (Q16531 whole entry partner): as the sequence (Q16531 whole entry partner) above
Protocol: as §1, §2, §3

CK1α = molecular target: T5, CK1α (Homo sapiens, UniProt P48729+Q96SW2); assay: Western-blot assay of substrate protein degradation in hPBMCs, CK1α
T5 construct: endogenous in cells; host or cells: hPBMCs (Milecell Biotechnologies)
T5 sequence (P48729 whole entry): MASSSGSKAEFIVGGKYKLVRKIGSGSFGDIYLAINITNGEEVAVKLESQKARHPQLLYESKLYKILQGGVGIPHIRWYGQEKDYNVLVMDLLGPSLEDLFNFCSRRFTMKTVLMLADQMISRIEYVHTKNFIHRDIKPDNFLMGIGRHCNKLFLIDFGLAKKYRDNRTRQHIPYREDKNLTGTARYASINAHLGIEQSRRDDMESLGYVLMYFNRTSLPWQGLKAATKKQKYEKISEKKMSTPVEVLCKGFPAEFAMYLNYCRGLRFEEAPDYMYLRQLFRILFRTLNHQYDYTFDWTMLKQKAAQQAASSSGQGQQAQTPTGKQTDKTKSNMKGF
T5 sequence (Q96SW2 whole entry): as the sequence (Q96SW2 whole entry) above
T5 sequence (Q16531 whole entry partner): as the sequence (Q16531 whole entry partner) above
Protocol: as §1, §2, §3

GSPT1 = molecular target: T6, GSPT1 (Homo sapiens, UniProt P15170+Q96SW2); assay: Western-blot assay of substrate protein degradation in hPBMCs, GSPT1
T6 construct: endogenous in cells; host or cells: hPBMCs (Milecell Biotechnologies)
Protocol: as §1, §2, §3

[1] = compounds tested at 50 nM and 500 nM (concentration of the table not stated)
[2] = 50 nM and 500 nM tested (concentration behind the class not stated)

T1 sequence (Q13422 whole entry): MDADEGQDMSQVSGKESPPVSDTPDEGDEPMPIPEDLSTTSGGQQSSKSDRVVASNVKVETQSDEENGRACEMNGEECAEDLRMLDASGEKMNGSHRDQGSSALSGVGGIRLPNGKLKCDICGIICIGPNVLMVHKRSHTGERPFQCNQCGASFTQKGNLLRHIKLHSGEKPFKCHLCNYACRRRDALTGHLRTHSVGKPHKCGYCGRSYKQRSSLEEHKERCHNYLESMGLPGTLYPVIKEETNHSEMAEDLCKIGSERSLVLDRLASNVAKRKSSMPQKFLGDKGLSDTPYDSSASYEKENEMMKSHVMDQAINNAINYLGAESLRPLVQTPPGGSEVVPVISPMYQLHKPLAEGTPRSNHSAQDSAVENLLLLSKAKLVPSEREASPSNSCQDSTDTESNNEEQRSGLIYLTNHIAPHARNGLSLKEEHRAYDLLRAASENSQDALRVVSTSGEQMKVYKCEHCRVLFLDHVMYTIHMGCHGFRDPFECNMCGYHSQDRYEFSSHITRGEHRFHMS
T1 sequence (Q96SW2 whole entry): as the sequence (Q96SW2 whole entry) above
T1 sequence (Q16531 whole entry partner): as the sequence (Q16531 whole entry partner) above

| Compound | IKZF 1 substrate protein remaining % (IKZF1; [1]) | Weel substrate protein remaining % (WEE1; [1]) | IKZF2 substrate protein remaining % (IKZF2; [1]) | IKZF3 substrate protein remaining % (IKZF3; [1]) | CK1a substrate protein remaining % (CK1α; [1]) | GSPT1 substrate protein remaining % (GSPT1; [1]) | IKZF 1 substrate protein remaining % (IKZF1; [2]) | Weel substrate protein remaining % (WEE1; [2]) | IKZF2 substrate protein remaining % (IKZF2; [2]) | IKZF3 substrate protein remaining % (IKZF3; [2]) | CK1a substrate protein remaining % (CK1α; [2]) | GSPT1 substrate protein remaining % (GSPT1; [2]) |
| --- | --- | --- | --- | --- | --- | --- | --- | --- | --- | --- | --- | --- |
| O=C1CCC(N2Cc3cc(CN4CCN(Cc5ccc(C67CC8CC(CC(C8)C6)C7)cc5)CC4)ccc3C2=O)C(=O)N1 (stereo not drawn) [GT-03026, 3-(5-((4-(4-((3r,5r,7r)-adamantan-1-yl)benzyl)piperazin-1-yl)methyl)-1-oxoisoindolin-2-yl)piperidine-2,6-dione] | A (0% ≤ substrate protein remaining % ≤ 80%) | B (80%< substrate protein remaining %≤ 100%) | A (0% ≤ substrate protein remaining % ≤ 80%) | A (0% ≤ substrate protein remaining % ≤ 80%) | A (0% ≤ substrate protein remaining % ≤ 80%) | A (0% ≤ substrate protein remaining % ≤ 80%) | – | – | – | – | – | – |
| O=C1CCC(N2Cc3cc(CN4CCn5c(nnc5C(F)(F)F)C4)ccc3C2=O)C(=O)N1 (stereo not drawn) [GT-04199, 3-(1-oxo-5-((3-(trifluoromethyl)-5,6-dihydro-[1,2,4]triazolo[4,3-a]pyrazin-7(8H)-yl)methyl)isoindolin-2-yl)piperidine-2,6-dione] | B (80%< substrate protein remaining %≤ 100%) | A (0% ≤ substrate protein remaining % ≤ 80%) | A (0% ≤ substrate protein remaining % ≤ 80%) | A (0% ≤ substrate protein remaining % ≤ 80%) | B (80%< substrate protein remaining %≤ 100%) | B (80%< substrate protein remaining %≤ 100%) | – | – | – | – | – | – |
| O=C1CCC(N2Cc3c(CN4CCC(c5noc6cc(F)ccc56)CC4)cccc3C2=O)C(=O)N1 (stereo not drawn) [GT-04764, 3-(4-((4-(6-fluorobenzo[d]isoxazol-3-yl)piperidin-1-yl)methyl)-1-oxoisoindolin-2-yl)piperidine-2,6-dione] | B (80%< substrate protein remaining %≤ 100%) | A (0% ≤ substrate protein remaining % ≤ 80%) | B (80%< substrate protein remaining %≤ 100%) | B (80%< substrate protein remaining %≤ 100%) | A (0% ≤ substrate protein remaining % ≤ 80%) | A (0% ≤ substrate protein remaining % ≤ 80%) | – | – | – | – | – | – |
| O=C1CCC(N2C(=O)c3cccc(CN4CCC(c5noc6cc(F)ccc56)CC4)c3C2=O)C(=O)N1 (stereo not drawn) [GT-04770, 2-(2,6-dioxopiperidin-3-yl)-4-((4-(6-fluorobenzo[d]isoxazol-3-yl)piperidin-1-yl)methyl)isoindoline-1,3-dione] | B (80%< substrate protein remaining %≤ 100%) | B (80%< substrate protein remaining %≤ 100%) | B (80%< substrate protein remaining %≤ 100%) | B (80%< substrate protein remaining %≤ 100%) | B (80%< substrate protein remaining %≤ 100%) | A (0% ≤ substrate protein remaining % ≤ 80%) | – | – | – | – | – | – |
| O=C1CCC(N2C(=O)c3ccc(CN4CCC(c5noc6cc(F)ccc56)CC4)cc3C2=O)C(=O)N1 (stereo not drawn) [GT-04771, 2-(2,6-dioxopiperidin-3-yl)-5-((4-(6-fluorobenzo[d]isoxazol-3-yl)piperidin-1-yl)methyl)isoindoline-1,3-dione] | B (80%< substrate protein remaining %≤ 100%) | A (0% ≤ substrate protein remaining % ≤ 80%) | B (80%< substrate protein remaining %≤ 100%) | B (80%< substrate protein remaining %≤ 100%) | A (0% ≤ substrate protein remaining % ≤ 80%) | A (0% ≤ substrate protein remaining % ≤ 80%) | – | – | – | – | – | – |
| O=C1CCC(N2Cc3c(CN4CCN(c5cccc6sccc56)CC4)cccc3C2=O)C(=O)N1 (stereo not drawn) [GT-04914, 3-(4-((4-(benzo[b]thiophen-4-yl)piperazin-1-yl)methyl)-1-oxoisoindolin-2-yl)piperidine-2,6-dione] | A (0% ≤ substrate protein remaining % ≤ 80%) | A (0% ≤ substrate protein remaining % ≤ 80%) | B (80%< substrate protein remaining %≤ 100%) | B (80%< substrate protein remaining %≤ 100%) | A (0% ≤ substrate protein remaining % ≤ 80%) | A (0% ≤ substrate protein remaining % ≤ 80%) | – | – | – | – | – | – |
| O=C1CCC(N2Cc3c(CN4CCn5c(nnc5C(F)(F)F)C4)cccc3C2=O)C(=O)N1 (stereo not drawn) [GT-04920, 3-(1-oxo-4-((3-(trifluoromethyl)-5,6-dihydro-[1,2,4]triazolo[4,3-a]pyrazin-7(8H)-yl)methyl)isoindolin-2-yl)piperidine-2,6-dione] | A (0% ≤ substrate protein remaining % ≤ 80%) | A (0% ≤ substrate protein remaining % ≤ 80%) | A (0% ≤ substrate protein remaining % ≤ 80%) | A (0% ≤ substrate protein remaining % ≤ 80%) | B (80%< substrate protein remaining %≤ 100%) | A (0% ≤ substrate protein remaining % ≤ 80%) | – | – | – | – | – | – |
| O=C1CCC(N2C(=O)c3ccc(CN4CCn5c(nnc5C(F)(F)F)C4)cc3C2=O)C(=O)N1 (stereo not drawn) [GT-04921, 2-(2,6-dioxopiperidin-3-yl)-5-((3-(trifluoromethyl)-5,6-dihydro-[1,2,4]triazolo[4,3-a]pyrazin-7(8H)-yl)methyl)isoindoline-1,3-dione] | A (0% ≤ substrate protein remaining % ≤ 80%) | A (0% ≤ substrate protein remaining % ≤ 80%) | B (80%< substrate protein remaining %≤ 100%) | B (80%< substrate protein remaining %≤ 100%) | B (80%< substrate protein remaining %≤ 100%) | B (80%< substrate protein remaining %≤ 100%) | – | – | – | – | – | – |
| Cc1ccsc1N1CCN(Cc2ccc3c(c2)C(=O)N(C2CCC(=O)NC2=O)C3=O)CC1 (stereo not drawn) [GT-06214, 2-(2,6-dioxopiperidin-3-yl)-5-((4-(3-methylthiophen-2-yl)piperazin-1-yl)methyl)isoindoline-1,3-dione] | – | – | – | – | – | – | B (80%< substrate protein remaining %≤ 100%) | B (80%< substrate protein remaining %≤ 100%) | A (0% ≤ substrate protein remaining % ≤ 80%) | B (80%< substrate protein remaining %≤ 100%) | B (80%< substrate protein remaining %≤ 100%) | A (0% ≤ substrate protein remaining % ≤ 80%) |
| Cc1cc(N2CCN(Cc3ccc4c(c3)C(=O)N(C3CCC(=O)NC3=O)C4=O)CC2)cs1 (stereo not drawn) [GT-06218, 2-(2,6-dioxopiperidin-3-yl)-5-((4-(5-methylthiophen-3-yl)piperazin-1-yl)methyl)isoindoline-1,3-dione] | – | – | – | – | – | – | B (80%< substrate protein remaining %≤ 100%) | A (0% ≤ substrate protein remaining % ≤ 80%) | B (80%< substrate protein remaining %≤ 100%) | A (0% ≤ substrate protein remaining % ≤ 80%) | A (0% ≤ substrate protein remaining % ≤ 80%) | A (0% ≤ substrate protein remaining % ≤ 80%) |
| O=C1CCC(N2C(=O)c3ccc(CN4CC=C(c5cccs5)CC4)cc3C2=O)C(=O)N1 (stereo not drawn) [GT-06219, 2-(2,6-dioxopiperidin-3-yl)-5-((4-(thiophen-2-yl)-3,6-dihydropyridin-1(2H)-yl)methyl)isoindoline-1,3-dione] | – | – | – | – | – | – | B (80%< substrate protein remaining %≤ 100%) | A (0% ≤ substrate protein remaining % ≤ 80%) | B (80%< substrate protein remaining %≤ 100%) | A (0% ≤ substrate protein remaining % ≤ 80%) | A (0% ≤ substrate protein remaining % ≤ 80%) | A (0% ≤ substrate protein remaining % ≤ 80%) |
